This experiment deals with BDF1 mice, B16 melanoma ip, median survival T/C. Kind of experiment: NCI In Vivo Anticancer Drug Screen. Data for tumor model B16 Melanoma (intraperitoneal) in B6D2F1 (BDF1) mice. The settings on record: endpoint: median survival time, higher = longer survival. The method in brief:
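Compounds were tested in mice carrying transplantable tumors. Survival or tumor size was recorded, and each value is the treated-group measurement (T) divided by that of the vehicle-treated control group (C).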

The mark [1] stands for this setting: dose: 400.0 mg/kg/injection, schedule: Q01DX009 (ip), vehicle: saline with Tween-80.
The mark [2] stands for this setting: dose: 100.0 mg/kg/injection, schedule: Q01DX009 (ip), vehicle: Klucel (hydroxypropylcellulose) (HPC).
[3] abbreviates: dose: 200.0 mg/kg/injection, schedule: Q01DX009 (ip), vehicle: Klucel (hydroxypropylcellulose) (HPC).
Where [4] appears, read: dose: 12.5 mg/kg/injection, schedule: Q01DX009 (ip), vehicle: saline.
Setting [5] is: dose: 25.0 mg/kg/injection, schedule: Q01DX009 (ip), vehicle: Klucel (hydroxypropylcellulose) (HPC).
Setting [6] is: dose: 12.5 mg/kg/injection, schedule: Q01DX009 (ip), vehicle: saline with Tween-80.
Where [7] appears, read: dose: 25.0 mg/kg/injection, schedule: Q01DX009 (ip), vehicle: saline with Tween-80.
Setting [8] is: dose: 50.0 mg/kg/injection, schedule: Q01DX009 (ip), vehicle: saline with Tween-80.
[9] abbreviates: dose: 50.0 mg/kg/injection, schedule: Q01DX009 (ip), vehicle: saline.
The mark [10] stands for this setting: dose: 100.0 mg/kg/injection, schedule: Q01DX009 (ip), vehicle: saline with Tween-80.
Setting [11] is: dose: 100.0 mg/kg/injection, schedule: Q01DX009 (ip), vehicle: saline.
The mark [12] stands for this setting: dose: 200.0 mg/kg/injection, schedule: Q01DX009 (ip), vehicle: saline with Tween-80.
The mark [13] stands for this setting: dose: 200.0 mg/kg/injection, schedule: Q01DX009 (ip), vehicle: saline.
Setting [14] is: dose: 50.0 mg/kg/injection, schedule: Q04DX003 (ip), vehicle: saline.
Setting [15] is: dose: 6.25 mg/kg/injection, schedule: Q01DX009 (ip), vehicle: saline with Tween-80.
[16] abbreviates: dose: 50.0 mg/kg/injection, schedule: Q01DX009 (ip), vehicle: Klucel (hydroxypropylcellulose) (HPC).

Data on 25 molecules can be found in PubChem BioAssay AID192 (DTP/NCI, 2004).

Where “and” joins values, the source holds several entries; their conditions need not be identical. Identical values can stand only once. Toxic doses and inconclusive results are not listed.

`CCc1cccc[n+]1[O-]`: the T/C reads like this: under setting [1], 96 % of control; (dose: 600.0 mg/kg/injection, schedule: Q01DX009 (ip), vehicle: saline with Tween-80) 96 % of control.

For the molecule `COc1cc([N+](=O)[O-])c2ncccc2c1`, the T/C was 115 % of control under setting [2] and 110 % of control under setting [3].

`CC(CN1CCN(C)CC1)CN1c2ccccc2Sc2ccc(C(F)(F)F)cc21` (stereo unspecified): the T/C by setting is: (dose: 1.56 mg/kg/injection, schedule: Q01DX009 (ip), vehicle: saline) 110 % of control; (dose: 3.12 mg/kg/injection, schedule: Q01DX009 (ip), vehicle: saline) 110 % of control; (dose: 6.25 mg/kg/injection, schedule: Q01DX009 (ip), vehicle: saline) 123 % of control; under setting [4], 107 % of control.

For the molecule `O=C(CN1CC1)NCCCCCCCCNC(=O)CN1CC1`, the T/C reads like this: (dose: 6.25 mg/kg/injection, schedule: Q01DX009 (ip), vehicle: Klucel (hydroxypropylcellulose) (HPC)) 124 % of control; under setting [5], 93 % of control.

As for `C(COCCOCC1CO1)OCCOCC1CO1` (stereo unspecified), the T/C is 101 % of control under setting [6]; 105 % of control under setting [7]; 103 % of control under setting [8]; 107 % of control under setting [9]; 109 % of control under setting [10]; 108 % of control and 110 % of control under setting [11]. Further, the T/C reads like this: under setting [12], 99 % of control; under setting [13], 86 % of control.

As for `O=[N+]([O-])O.O=[N+]([O-])O.[O]=[Zr]`, the T/C runs as follows: (dose: 12.5 mg/kg/injection, schedule: Q04DX003 (ip), vehicle: saline) 97 % of control; (dose: 25.0 mg/kg/injection, schedule: Q04DX003 (ip), vehicle: saline) 90 % of control; under setting [14], 95 % of control.

`CCCCCC/C=C\C(=O)O`: the T/C is 94 % of control and 95 % of control under setting [15]; 93 % of control and 104 % of control under setting [6]; 93 % of control and 98 % of control under setting [7]; 88 % of control under setting [8].

For the molecule `CC(=O)OCC(COC(C)=O)(COC(C)=O)COC(C)=O`, the T/C under setting [10] was 105 % of control, the T/C under setting [12] is 105 % of control and the T/C under setting [1] is 100 % of control.

On to `COc1ccc(NC(=O)Nc2ccc(OC)cc2)cc1`, for which the T/C under setting [13] was 120 % of control and the T/C (dose: 400.0 mg/kg/injection, schedule: Q01DX009 (ip), vehicle: saline) was 116 % of control.

Regarding `COc1ccc(C2=C(c3ccccc3)C(c3ccccc3)=C(c3ccc(OC)cc3)C2=O)cc1`, the T/C is 94 % of control under setting [8], 95 % of control under setting [10], 95 % of control under setting [12] and 94 % of control under setting [1].

As for `COC(=O)C(C)CN1CCCCC1` (stereo unspecified), the T/C under setting [14] is 111 % of control; the T/C (dose: 100.0 mg/kg/injection, schedule: Q04DX003 (ip), vehicle: saline) was 111 % of control; the T/C (dose: 200.0 mg/kg/injection, schedule: Q04DX003 (ip), vehicle: saline) is 105 % of control.

Consider `Cc1ccc(CCCC(=O)O)c(C)c1`, for which the T/C is 104 % of control under setting [2]; 96 % of control under setting [3]; 97 % of control (dose: 400.0 mg/kg/injection, schedule: Q01DX009 (ip), vehicle: Klucel (hydroxypropylcellulose) (HPC)).

As to `CC1(C)CC[C@H](C2=CC(=O)c3c(O)ccc(O)c3C2=O)O1`, the T/C is 99 % of control (dose: 1.25 mg/kg/injection, schedule: Q01DX009 (ip), vehicle: Klucel (hydroxypropylcellulose) (HPC)); 97 % of control (dose: 2.5 mg/kg/injection, schedule: Q01DX009 (ip), vehicle: Klucel (hydroxypropylcellulose) (HPC)); 97 % of control (dose: 5.0 mg/kg/injection, schedule: Q01DX009 (ip), vehicle: Klucel (hydroxypropylcellulose) (HPC)); 92 % of control (dose: 10.0 mg/kg/injection, schedule: Q01DX009 (ip), vehicle: Klucel (hydroxypropylcellulose) (HPC)); 93 % of control (dose: 20.0 mg/kg/injection, schedule: Q01DX009 (ip), vehicle: Klucel (hydroxypropylcellulose) (HPC)).

In the case of `CCN(C)c1cc2c3c(c1)CCCN3CCC2`, the T/C is 111 % of control (dose: 0.63 mg/kg/injection, schedule: Q01DX009 (ip), vehicle: saline); 95 % of control (dose: 1.25 mg/kg/injection, schedule: Q01DX009 (ip), vehicle: saline); 101 % of control (dose: 2.5 mg/kg/injection, schedule: Q01DX009 (ip), vehicle: saline); 93 % of control (dose: 5.0 mg/kg/injection, schedule: Q01DX009 (ip), vehicle: saline).

Consider `O=S(=O)(Nc1ccccc1)c1ccc(C2CC3(Cl)C(Cl)=C(Cl)C2(Cl)C3(Cl)Cl)cc1` (stereo unspecified), for which the T/C runs as follows: under setting [2], 100 % of control; under setting [3], 87 % of control.

Take `O=C1NC(=O)C(Cc2ccccc2)(c2ccccc2)N1` (stereo unspecified): the T/C is 105 % of control under setting [8] and 102 % of control under setting [10].

Turning to `Nc1ccccc1SC1CC(=O)N(c2ccc(Br)cc2Cl)C1=O` (stereo unspecified), the T/C under setting [16] is 94 % of control.

Regarding `C[n+]1ccccc1/C=N/O`, the T/C is 100 % of control (dose: 18.75 mg/kg/injection, schedule: Q01DX009 (ip), vehicle: saline); 107 % of control (dose: 37.5 mg/kg/injection, schedule: Q01DX009 (ip), vehicle: saline); 88 % of control and 106 % of control (dose: 75.0 mg/kg/injection, schedule: Q01DX009 (ip), vehicle: saline).

Consider `CCOC(=O)N1C(=O)c2ccccc2C1=O`, for which the T/C under setting [7] is 94 % of control, the T/C under setting [8] is 94 % of control and the T/C under setting [10] was 86 % of control.

For the molecule `CC(=O)ON(C(C)=O)c1ccc(C(N)=O)cc1`, the T/C under setting [7] was 91 % of control; the T/C under setting [8] is 89 % of control; the T/C under setting [10] is 86 % of control; the T/C under setting [12] was 88 % of control; the T/C under setting [1] is 94 % of control.

Take `CNC(=S)N/N=C(/C)CCC/C(C)=N/NC(=S)NC`: the T/C is, setting by setting: under setting [15], 94 % of control; under setting [6], 94 % of control; under setting [7], 97 % of control.

Take `CC1(c2ccc(Cl)cc2)OC(=O)C(=Cc2ccc([N+](=O)[O-])s2)C(=O)O1` (stereo unspecified): the T/C is 92 % of control under setting [15] and 87 % of control under setting [6].

Regarding `N=c1ccn2c(n1)OC1C(O)C(CO)OC12` (stereo unspecified), the T/C was 98 % of control under setting [4]; 96 % of control and 109 % of control (dose: 25.0 mg/kg/injection, schedule: Q01DX009 (ip), vehicle: saline); 102 % of control and 108 % of control and 117 % of control under setting [9]; 104 % of control (dose: 100.0 mg/kg/injection, schedule: Q01DX009 (ip), vehicle: saline sonified); 120 % of control and 105 % of control under setting [11]; 104 % of control (dose: 200.0 mg/kg/injection, schedule: Q01DX009 (ip), vehicle: saline sonified). Further, the T/C reads like this: under setting [13], 114 % of control and 124 % of control; (dose: 400.0 mg/kg/injection, schedule: Q01DX009 (ip), vehicle: saline sonified) 110 % of control.

Turning to `CC(C)[NH-].CC(C)[NH-].O.O.[Cl][Pt+2][Cl]`, the T/C is 118 % of control (dose: 3.12 mg/kg/injection, schedule: Q01DX009 (ip), vehicle: dextrose); 122 % of control (dose: 3.13 mg/kg/injection, schedule: Q01DX009 (ip), vehicle: dextrose); 164 % of control and 168 % of control (dose: 12.5 mg/kg/injection, schedule: Q01DX009 (ip), vehicle: dextrose).

With `CCOc1cc(C2=NNc3n[nH]c(=S)n3N2)ccc1O`, the T/C under setting [5] is 96 % of control; the T/C (dose: 25.0 mg/kg/injection, schedule: Q04DX003 (ip), vehicle: Klucel (hydroxypropylcellulose) (HPC)) was 97 % of control; the T/C under setting [16] was 100 % of control; the T/C (dose: 50.0 mg/kg/injection, schedule: Q04DX003 (ip), vehicle: Klucel (hydroxypropylcellulose) (HPC)) is 102 % of control; the T/C (dose: 100.0 mg/kg/injection, schedule: Q04DX003 (ip), vehicle: Klucel (hydroxypropylcellulose) (HPC)) was 122 % of control.
